As usually defined, the GI50 is the concentration at which growth is held to half of that of the control.

The values that follow come from ChEMBL document CHEMBL1201862, “PubChem BioAssay data set” (2004).

Some test systems named below: OVCAR-8; SF-539; HOP-62; MDA-MB-435; K562; SN12C; HCT-116; SW-620; HT-29; PC-3; MCF7; Hs-578T; UACC-62; HCT-15; NCI-H460; SK-OV-3; SNB-19; NCI/ADR-RES; OVCAR-5; SK-MEL-5.
Holding throughout (assay): DTP human tumour cell line panel, 48 h

Structures are written as SMILES.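 Cultured in 96-well plates, cells were exposed to test compound for 48 hours across five concentrations. The concentration for 50% growth inhibition is given as GI50.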 Activity calls are given as the source filed them. Cut-off read from the data, not from the text of the source: active = GI50 up to about 1.1 µM and inactive = higher. Some results are limits rather than exact numbers.

On to `c1ccc([P+](CCCCCC[P+](c2ccccc2)(c2ccccc2)c2ccccc2)(c2ccccc2)c2ccccc2)cc1`, for which the GI50 with OVCAR-8 was 13.3 µM (inactive); with SF-539 it was 5.24 µM (inactive); in the test with HOP-62, 9.18 µM (inactive); with MDA-MB-435, 15.2 µM (inactive); with K562, 11.7 µM (inactive); in the test with SN12C it was 15.3 µM (inactive). The GI50 with HCT-116 was 4.51 µM (inactive); with SW-620, 18.5 µM (inactive); in the test on HT-29 it was 7.24 µM (inactive); in the test with PC-3 it was 8.51 µM (inactive); in the test with MCF7, 5.94 µM (inactive); in the test on Hs-578T, 15.3 µM (inactive). Besides, the GI50 in the test with UACC-62 was 18 µM (inactive); with HCT-15, above 100 µM; in the test with NCI-H460, 9.38 µM (inactive); with SK-OV-3, 62.2 µM (inactive); in the test with SNB-19, 0.906 µM (active); in the test with NCI/ADR-RES, > 100 µM (inactive). The GI50 in the test with OVCAR-5 is 34.3 µM (inactive).
Take `Oc1nc2cc3nc(O)c(O)nc3cc2nc1O`: the GI50 in the test with OVCAR-8, in the test on SF-539, with MDA-MB-435, in the test with K562, in the test on SN12C and in the test on HCT-116 was > 100 µM (inactive) throughout. Besides, the GI50 in the test with SW-620, in the test with HT-29, in the test on PC-3, with MCF7, in the test on Hs-578T and with UACC-62 was > 100 µM (inactive) in each case. Besides, the GI50 was > 100 µM (inactive) in the test with SK-MEL-5; above 100 µM in the test with HCT-15; > 100 µM (inactive) in the test on NCI-H460; > 100 µM (inactive) in the test on SK-OV-3; > 100 µM (inactive) with SNB-19; > 100 µM (inactive) with NCI/ADR-RES. For the same compound, the GI50 in the test on OVCAR-5 is > 100 µM (inactive).
Consider `Cc1ccn2c(CCc3nnc4cc(C)ccn34)nnc2c1`, for which the GI50 with OVCAR-8, in the test on SF-539, with HOP-62, in the test with MDA-MB-435, in the test with SN12C and with HCT-116 was > 100 µM (inactive) throughout. Moreover, the GI50 in the test on SW-620, in the test with HT-29, in the test on PC-3, in the test on MCF7, with Hs-578T and in the test on UACC-62 was > 100 µM (inactive) in each case. For the same compound, the GI50 in the test on SK-MEL-5 is > 100 µM (inactive); in the test with HCT-15, above 100 µM; with NCI-H460 it was > 100 µM (inactive); in the test with SK-OV-3, > 100 µM (inactive); in the test with SNB-19, > 100 µM (inactive); with NCI/ADR-RES, > 100 µM (inactive). Moreover, the GI50 with OVCAR-5 is > 100 µM (inactive).
Consider `O=C1NC(N2CCCCC2)=N/C1=C\c1ccccc1O`, for which the GI50 in the test with OVCAR-8 was > 100 µM (inactive); in the test on SF-539, 37.1 µM (inactive); with HOP-62, > 100 µM (inactive); in the test with MDA-MB-435 it was > 100 µM (inactive); in the test with K562, > 100 µM (inactive); with SN12C, > 100 µM (inactive). For the same compound, the GI50 with HCT-116 was > 100 µM (inactive); in the test with SW-620, > 100 µM (inactive); with HT-29 it was > 100 µM (inactive); with PC-3, > 100 µM (inactive); in the test with MCF7 it was > 100 µM (inactive); in the test on Hs-578T, 77.3 µM (inactive). The GI50 in the test on SK-MEL-5 was 50.2 µM (inactive); with HCT-15, above 100 µM; in the test on SK-OV-3, > 100 µM (inactive); in the test on SNB-19 it was > 100 µM (inactive); with NCI/ADR-RES, > 100 µM (inactive); in the test on OVCAR-5, > 100 µM (inactive).
For the compound `CN(C)CCCNc1ccc2nnn3c4ccc(OC(=O)c5ccccc5)cc4c(=O)c1c23`, the GI50 is 4.55 µM (inactive) in the test on OVCAR-8; 6.76 µM (inactive) in the test on SF-539; 5.92 µM (inactive) in the test on HOP-62; 6.4 µM (inactive) with MDA-MB-435; 1.81 µM (inactive) in the test with K562; 5.06 µM (inactive) in the test on SN12C. The GI50 was 3.15 µM (inactive) in the test with HCT-116; 4.53 µM (inactive) with SW-620; 3.71 µM (inactive) in the test on HT-29; 8.34 µM (inactive) in the test with PC-3; 6.07 µM (inactive) in the test with MCF7; 18.3 µM (inactive) in the test on Hs-578T. Further, the GI50 with UACC-62 is 14.5 µM (inactive); in the test with HCT-15, 5.36 µM; in the test on NCI-H460, 0.76 µM (active); in the test with SK-OV-3 it was 9.51 µM (inactive); in the test on SNB-19 it was 10.9 µM (inactive); in the test with NCI/ADR-RES, 12.5 µM (inactive). In addition, in the test with OVCAR-5, the GI50 is 14.4 µM (inactive).
With `NC(=O)NCCCC(NC(=O)OCCCCCn1ccc(=O)[nH]c1=O)C(=O)O` (stereo not drawn), the GI50 in the test on OVCAR-8, in the test with SF-539, in the test with HOP-62, in the test on MDA-MB-435, in the test on K562 and with SN12C was > 100 µM (inactive) throughout. In addition, the GI50 in the test on HCT-116, in the test with SW-620, in the test with HT-29, with PC-3, with MCF7 and in the test on Hs-578T was > 100 µM (inactive) throughout. Besides, the GI50 with UACC-62 is > 100 µM (inactive); in the test with HCT-15 it was above 100 µM; in the test with NCI-H460, > 100 µM (inactive); in the test with SK-OV-3, > 100 µM (inactive); with SNB-19 it was > 100 µM (inactive); in the test on NCI/ADR-RES it was > 100 µM (inactive). For the same compound, in the test on OVCAR-5, the GI50 is > 100 µM (inactive).
For `Cc1cc(C(F)(F)F)cc(-n2nc(NS(=O)(=O)c3cc(C)c(Cl)cc3S)nc2N)n1`, the GI50 in the test with OVCAR-8 is 45.4 µM (inactive); in the test with SF-539, > 10 µM (inactive); in the test with HOP-62, 23.3 µM (inactive); in the test with MDA-MB-435 it was 41.4 µM (inactive); in the test with K562, 39.7 µM (inactive); in the test on SN12C, 35.5 µM (inactive). The GI50 in the test with HCT-116 was 33.7 µM (inactive); in the test with SW-620, > 100 µM (inactive); in the test on HT-29, 42 µM (inactive); in the test on PC-3, 47.4 µM (inactive); in the test on MCF7, 45.1 µM (inactive); in the test on Hs-578T, 41 µM (inactive). Moreover, the GI50 in the test with UACC-62 is 29.5 µM (inactive); in the test on SK-MEL-5 it was 37.1 µM (inactive); in the test on HCT-15, 39.5 µM; in the test with NCI-H460, 24.4 µM (inactive); in the test with SK-OV-3 it was 81.7 µM (inactive); in the test on SNB-19, 26.8 µM (inactive). For the same compound, the GI50 with NCI/ADR-RES was 30.8 µM (inactive).
With `Cc1n[nH]c(=O)n1/N=C/c1ccco1`, the GI50 in the test with OVCAR-8, with SF-539, in the test with HOP-62, in the test with MDA-MB-435, with K562 and in the test with SN12C was > 100 µM (inactive) throughout. In addition, the GI50 with HCT-116, in the test with SW-620, in the test on HT-29, with PC-3, in the test on MCF7 and in the test with Hs-578T was > 100 µM (inactive) throughout. In addition, the GI50 with UACC-62 was > 100 µM (inactive); in the test on HCT-15, above 100 µM; in the test on NCI-H460, > 100 µM (inactive); in the test with SK-OV-3, > 100 µM (inactive); with SNB-19, > 100 µM (inactive); in the test on NCI/ADR-RES, > 100 µM (inactive). The GI50 in the test on OVCAR-5 is > 100 µM (inactive).
As for `CC1NCCC(CC(=O)O)C1CC(=O)O` (stereo not drawn), the GI50 in the test with OVCAR-8, in the test with HOP-62, with MDA-MB-435, with K562, in the test with SN12C and in the test on HCT-116 was > 100 µM (inactive) throughout. Moreover, the GI50 in the test with SW-620, in the test with HT-29, with PC-3, in the test with MCF7, in the test with Hs-578T and in the test on UACC-62 was > 100 µM (inactive) throughout. Also, the GI50 is > 100 µM (inactive) in the test with SK-MEL-5; above 100 µM in the test with HCT-15; > 100 µM (inactive) in the test with NCI-H460; > 100 µM (inactive) with SK-OV-3; > 100 µM (inactive) in the test with SNB-19; > 100 µM (inactive) in the test on NCI/ADR-RES. The GI50 with OVCAR-5 is > 100 µM (inactive).
As for `CC1=C(C)C2(C#N)C(=O)N3C(=NC(c4ccccc4)NC3c3ccccc3)C2(C#N)C(c2ccccc2)N1` (stereo not drawn), the GI50 with OVCAR-8, in the test with HOP-62, in the test on MDA-MB-435, in the test with K562, in the test on SN12C and in the test with HCT-116 was > 100 µM (inactive) throughout. Also, the GI50 in the test with SW-620, with HT-29, in the test with PC-3, in the test with MCF7, in the test on Hs-578T and in the test with UACC-62 was > 100 µM (inactive) each time. In addition, the GI50 was > 100 µM (inactive) in the test with SK-MEL-5; above 100 µM in the test on HCT-15; > 100 µM (inactive) with NCI-H460; > 100 µM (inactive) in the test on SK-OV-3; > 100 µM (inactive) with SNB-19; > 100 µM (inactive) in the test on NCI/ADR-RES. Further, the GI50 in the test on OVCAR-5 was > 100 µM (inactive).
Consider `COc1cc(C2=C(c3cc(OC)c4ccccc4c3OC)C(=O)c3ccccc3C2=O)c(OC)c2ccccc12`, for which the GI50 with OVCAR-8, with SF-539, with HOP-62, in the test on MDA-MB-435, with SN12C and in the test on HCT-116 was > 100 µM (inactive) each time. In addition, the GI50 with SW-620, in the test on HT-29, in the test on PC-3, with MCF7, in the test on Hs-578T and with UACC-62 was > 100 µM (inactive) in each case. The GI50 with SK-MEL-5 was > 100 µM (inactive); with HCT-15, above 100 µM; with NCI-H460 it was > 100 µM (inactive); in the test with SK-OV-3, > 100 µM (inactive); in the test on SNB-19, > 100 µM (inactive); in the test with NCI/ADR-RES it was > 100 µM (inactive). In the test on OVCAR-5, the GI50 was 75.9 µM (inactive).
